In patent US11148991B2, “5-bromo-2-(alpha-hydroxypentyl)benzoic acid sodium salts in different crystal forms, and preparation method thereof” (priority 2013, dated 2021):
Where two headings read alike, the source gives them in different places.

How the values were obtained:
[1] = tested on: rat MCAO model; test: Brain infarction volume and brain edema volume in rats with local brain ischemia (MCAO model); type: in vivo, Wistar rats; conditions: sodium salt
From the text: Wistar rats (50% of rats is female and another 50% of rats is male); 5-bromo-2-(α-hydroxypentyl)benzoic acid sodium salt (BZP, in the form of amorphous form, crystal form A and crystal form B, prepared according to the present invention), prepared in double distilled water; […] is in the form of white powder, manufactured by Beijing Chemical Works.
Administration method: 5-bromo-2-(α-hydroxypentyl)benzoic acid sodium salt (BZP) was intravenously injected at one hour before MCAO, with the dosage of 12 mg/kg; 5-bromo-2-(α-hydroxypentyl)benzoic acid sodium salt (BZP) was used to intragastric administration at one hour before MCAO, with the dosage of 20 mg/kg. 2-(α-hydroxypentyl)benzoic acid potassium salt (NBP-K) was used as positive control, and its dosage (calculated in moles) is the same as that of 5-bromo-2-(α-hydroxypentyl)benzoic acid sodium salt, that is, the dosage of intravenous injection is 9.6 mg/kg, and the dosage of intragastric administration is 15.9 mg/kg.
Preparation of MCAO model: Establish a focal brain ischemia-reperfusion injury model by cerebral artery obstruction in rats with suture-occluded method. Rats were intraperitoneally injected with 10% chloral hydrate to anesthetize. Rats were fixed on back and the skin of neck center was incised. The left common carotid artery, external carotid artery, and internal carotid artery were subjected to blunt dissection. The pterygopalatine artery was ligated, only remaining cranial trunk of internal carotid artery; a prepared nylon rope (burning diameter 0.3 mm) was inserted via external carotid artery incision into the bifurcation of the […], and was pushed along the cranial direction of the internal carotid artery. […] This indicates one side of the middle cerebral artery occlusion model was completed. Sutured the incision, remained the end of nylon line out of the skin. For reperfusion, the nylon line was gently pulled out. If feel force of resistance, this indicates the end of nylon line has returned to the trunk of external carotid artery, thereby accomplishing reperfusion.
Determination of infarction volume: After being subjected to ischemia for 2 hours and reperfusion for 24 hours, the heads of rats were cut off. Forebrain was removed and cut into six pieces, each piece being 2 mm. The pieces were stained with TC, and incubated at 37° C. for 30 minutes. Normal issues were stained to be red, but the infarcted issues were stained to be white. Took photos with digital camera, and calculated the percentage of the infarcted area relative to the spherical area of brain by Photoshop.

[2] = Solubility in water and methanol; type: physicochemical
[3] = tested on: Rat; test: Sub-acute toxicity, rat
[4] = Acute toxicity (LD50), rat; conditions: in vivo
[5] = intragastric administration one hour before MCAO, BZP 20 mg/kg, NBP-K 15.9 mg/kg
[6] = intravenous injection one hour before MCAO, 12 mg/kg, 12 mg/kg

CCCCC(O)c1ccc(Br)cc1C(=O)[O-].[Na+] (stereo not drawn) [BZP (amorphous form), 5-bromo-2-(α-hydroxypentyl)benzoic acid sodium salt]
Edema (%) [1, 5]: 2.24 ± 1.66^aa** %
Infarction volume (%) [1, 5]: 5.59 ± 2.35 aa %
Inhibition of edema (%) [1, 5]: 88.36%
Inhibition of infarction volume (%) [1, 5]: 89.05%
Edema (%) [1, 6]: 2.56 ± 1.63 aa %
Inhibition of edema (%) [1, 6]: 88.58%
Infarction volume (%) ([1]; intravenous injection one hour before MCAO, BZP 12 mg/kg, NBP-K 9.6 mg/kg, ischemia 2 hours, reperfusion 24 hours): 3.46 ± 2.94 aa %
Inhibition of infarction volume (%) ([1]; intravenous injection one hour before MCAO, BZP 12 mg/kg, NBP-K 9.6 mg/kg): 93.52%
solubility ([2]; methanol, organic solvent or mixture, methanol, read-out: Solubility in methanol): 1890 mg/mL
solubility ([2]; water, read-out: Solubility in water): 2980 mg/mL
Sub-acute ([3]; ig): >20 mg/kg
Sub-acute ([3]; iv): >12 mg/kg
LD50 ([4]; iv): 246 mg/kg
LD50 ([4]; po): 726 mg/kg
